Measurements published in article PMC7996328, “Design, Synthesis, and Biological Evaluation of a Series of 5- and 7-Hydroxycoumarin Derivatives as 5-HT1A Serotonin Receptor Antagonists” (Pharmaceuticals, 2021).
Where two headings read alike, the source gives them in different places.

Key:
5-HT2A receptor = molecular target: T1, 5-HT2A receptor (Rattus norvegicus, UniProt P14842); assay: 5-HT2A competition binding assay, [3H]ketanserin, frontal cortex homogenates; settings: [3H]ketanserin 1 nM, read-out: Ki (nM ± SEM) (converted)
T1 construct: from tissue; host or cells: rat frontal cortex (male SD), membrane homogenate
T1 sequence (P14842 whole entry): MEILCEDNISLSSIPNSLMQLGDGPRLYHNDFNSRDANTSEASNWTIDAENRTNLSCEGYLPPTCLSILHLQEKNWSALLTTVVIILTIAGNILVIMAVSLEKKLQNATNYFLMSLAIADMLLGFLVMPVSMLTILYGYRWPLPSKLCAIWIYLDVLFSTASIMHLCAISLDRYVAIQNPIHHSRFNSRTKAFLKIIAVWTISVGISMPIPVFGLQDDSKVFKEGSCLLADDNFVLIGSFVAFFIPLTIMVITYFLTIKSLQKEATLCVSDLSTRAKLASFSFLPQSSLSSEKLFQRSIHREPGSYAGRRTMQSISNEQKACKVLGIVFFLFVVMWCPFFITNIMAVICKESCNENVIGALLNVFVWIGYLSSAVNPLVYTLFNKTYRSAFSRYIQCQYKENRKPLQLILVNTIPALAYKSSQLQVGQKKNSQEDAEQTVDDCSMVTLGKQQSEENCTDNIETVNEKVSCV

5-HT1A receptor [1] = molecular target: T2, 5-HT1A receptor (Rattus norvegicus, UniProt P19327); assay: G-protein enhancing (agonist) effect at the 5-HT1A receptor; assay type: biochemical
T2 construct: Hippocampal homogenates (15 μg/mL) were added to each tube as the 5-HT1A receptor source; from tissue; host or cells: rat hippocampus (male Sprague-Dawley), membrane homogenate
T2 sequence (P19327 1-422): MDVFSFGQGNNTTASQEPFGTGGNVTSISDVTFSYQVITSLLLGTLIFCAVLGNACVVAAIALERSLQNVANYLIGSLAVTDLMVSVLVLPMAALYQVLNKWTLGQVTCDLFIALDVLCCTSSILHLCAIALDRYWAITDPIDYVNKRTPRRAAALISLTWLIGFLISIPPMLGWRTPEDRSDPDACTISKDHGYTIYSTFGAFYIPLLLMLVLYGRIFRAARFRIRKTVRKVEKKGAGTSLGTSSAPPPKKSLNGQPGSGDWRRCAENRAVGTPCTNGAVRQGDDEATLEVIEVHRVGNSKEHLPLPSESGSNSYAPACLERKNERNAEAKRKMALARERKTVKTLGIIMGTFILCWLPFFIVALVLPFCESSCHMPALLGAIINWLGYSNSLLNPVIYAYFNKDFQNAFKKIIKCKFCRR

[2] = Solubility under experimental conditions of the 5-HT1A assay; assay type: physicochemical; settings: reason for not testing in 5-HT1A assay
Method: Compounds were dissolved in 9.5% DMSO and 0.5% Kolliphor® EL (Sigma Aldrich, Taufkirchen, Germany). Serial dilutions of the compounds tested (10^−10–10^−5 M) were incubated in triplicate with 0.8 nM [^35S]GTPγS in assay buffer (50 mM Tris-HCl, pH = 7.4, 1 mM EGTA, 3 mM MgCl2, 100 mM NaCl, 30 µM GDP) and 8-OH-DPAT (final concentration 1.4 × 10^−7 M) in the final assay volume of 250 µL. Hippocampal homogenates (15 μg/mL) were added to each tube as the 5-HT1A receptor source. The final DMSO and Kolliphor® EL concentrations were 0.95% and 0.05%, respectively. Non-specific binding was determined with 10 µM of unlabeled GTPγS. The reaction mixture was incubated for 90 min at 37 °C in a volume of 250 µL. Next, 96-well Unifilter® Plates (Perkin Elmer, Waltham, MA, USA) were presoaked for 1 h with 50 mM Tris-HCl (pH = 7.4) before harvesting. The reaction was terminated by vacuum filtration onto filter plates with the FilterMate Harvester® (Perkin Elmer, Waltham, MA, USA). The samples were then rapidly washed with 2 mL of 50 mM Tris-HCl (pH = 7.4) buffer. Filter plates were dried for 2 h at 50 °C. After drying, 45 µL of EcoScint-20 scintillant (Perkin Elmer) was added to every well. Radioactivity was counted in a Trilux MicroBeta^2 counter (Perkin Elmer). Data were analyzed with GraphPad Prism 5.0 software (GraphPad Software, San Diego, CA, USA, www.graphpad.com). Curves were fitted with a one-site non-linear regression model. Efficacy (Emax) and half maximal inhibitory concentration (IC50) were calculated from the Cheng–Prusoff equation and expressed as means ± SEM.

5-HT1A receptor [3] = settings: previously synthesized coumarins derivatives, Figure 1; read-out: Ki, 5-HT1A receptor affinity; cited from earlier work
[4] = G-protein enhancing effect, 5-HT1A

melting point | solubility under experimental conditions [2] | Compound | Ki (5-HT1A receptor [3]) | also measured
126 to 127 °C |  | Cc1cc(OCCN2CCN(c3cccc(Br)c3)CC2)c2c(C)cc(=O)oc2c1 [Compound 2g, 5-(4-(4-(3-bromophenyl)piperazin-1-yl)ethoxy)-4,7-dimethyl-2H-chromen-2-one] |  | Ki (5-HT2A receptor): 3540 nM; Emax (5-HT1A receptor [1]; [4]): 118 ± 6.5%; Emax (% ± SEM) (5-HT1A receptor [1]; [4]): 113 ± 6.5%; EC50 (5-HT1A receptor [1]; G-protein enhancing effect, 5-HT1A, read-out: EC50 (nM ± SEM)): 5080 ± 2640 nM; EC50 (5-HT1A receptor [1]; G-protein enhancing effect, 5-HT1A, read-out: pEC50 (converted)): 6310 nM; functional character at the 5-HT1A receptor (5-HT1A receptor [1]; in words): weak partial agonists
116 to 118 °C | very poor solubility | CC(=O)c1c(C)cc2oc(=O)cc(C)c2c1OCCCCCN1CCN(c2ccccc2C#N)CC1 [Compound 3j, 6-acetyl-5-(5-(4-(2-cyanophenyl)piperazin-1-yl)pentyloxy)-4,7-dimethyl-2H-chromen-2-one] |  | 
 |  | Cc1cc(OCCCN2CCN(c3cccc(Cl)c3Cl)CC2)c2c(C)cc(=O)oc2c1 [IIc] | 8 ± 0.04 nM | 
110 to 112 °C | very poor solubility | CC(=O)c1c(OCCN2CCN(c3cccc(Br)c3)CC2)ccc2c(C)cc(=O)oc12 [Compound 6g, 8-acetyl-7-(2-[4-(3-bromohenyl)piperazin-1-yl]ethoxy)-4-methylchromen-2-one] |  | Ki (5-HT2A receptor): 1490 ± 466 nM
 |  | Cc1cc(OCCCCN2CCN(c3cccc(Cl)c3Cl)CC2)c2c(C)cc(=O)oc2c1 [IId] | 4 ± 0.8 nM | 
 |  | Cc1cc(OCCCCN2CCN(c3ccccc3C#N)CC2)c2c(C)cc(=O)oc2c1 [IIf] | 3 ± 0.2 nM | 
107 to 109 °C | very poor solubility | Cc1cc(OCCCCCN2CCN(c3cccc(Br)c3)CC2)c2c(C)cc(=O)oc2c1 [Compound 1g, 5-(5-(4-(3-bromophenyl)piperazin-1-yl)pentyloxy)-4,7-dimethyl-2H-chromen-2-one] |  | 
132 to 134 °C | very poor solubility | Cc1ccc(C)c(N2CCN(CCCCCOc3cc(C)cc4oc(=O)cc(C)c34)CC2)c1 [Compound 1d, 5-(5-(4-(2,5-dimethylphenyl)piperazin-1-yl)pentyloxy)-4,7-dimethyl-2H-chromen-2-one] |  | 
 |  | Cc1cc(OCCCCN2CCN(c3ccccc3F)CC2)c2c(C)cc(=O)oc2c1 [IIb] | 3 ± 0.1 nM | 
 |  | Cc1cc(OCCCN2CCN(c3ccccc3C#N)CC2)c2c(C)cc(=O)oc2c1 [IIe] | 1.5 ± 0.2 nM | 
 |  | Cc1cc(OCCCN2CCN(c3ccccc3F)CC2)c2c(C)cc(=O)oc2c1 [IIa] | 1.7 ± 0.005 nM | 
